The results in this text go back to patent US10744128B2, “6-(5-membered heteroaryl)isoquinolin-3-yl-(5-membered heteroaryl) carboxamides and preparation and use thereof” (Samumed, LLC, priority 2017, dated 2020).

Experiment [1] deals with primary human fibroblasts derived from IPF patients (LL29 cells), α-smooth muscle actin. Briefly: Inhibition of fibrotic process: αSMA in TGF-β1 treated LL29 fibroblasts. Format: cell-based. Conditions: Homo sapiens, Fibroblast, 96 h; LL29 cells, TGF-β1 20 ng/mL, 4 days, % cells positive for αSMA. The essentials:
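LL29 fibroblasts from IPF patients, in F12 medium with 1% FBS, treated with TGF-β1 plus compound; TGF-β1 with DMSO as positive control, DMSO alone as negative control. After 4 days' incubation, SYTOX green nucleic acid stain added at 1 μM final, 30 min at room temperature.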

Experiment [2] deals with SW480 colon carcinoma cells. The experiment can be described thus: Cell viability assay (CellTiter-Glo) in SW480 cells. Conditions: Homo sapiens, 96 h, four days. Format: cell-based, human. A general note: ATP-based viability assays read luminescence as a measure of living cells.
The subject of experiment [3] is Tau phosphorylation at Ser396 (pSer396). Briefly: Tau phosphorylation (pSer396) assay in SH-SY5Y cells. The format is cell-based, human. As to conditions: Homo sapiens; SH-SY5Y cells, overnight (16-18 h), pSer396 Tau ELISA; read-out: EC50.
Protocol: Two days before treatment, cells were seeded onto 96 well plates at 5×10^4 cells/well.
The above synthesized compounds were screened using the cell assay procedure to assess decrease Tau phosphorylation at Ser396 (pSer396) described below.
Cells were lysed with RIPA buffer complemented with phosphatase and protease inhibitors then lysates were spun down at 12,000 g for 10 min to remove any cellular debris.
Experiment [4] concerns the target recombinant DYRK1A kinase (Homo sapiens (Human), UniProt Q13627). Briefly: DYRK1A kinase assay (Ser/Thr 18 peptide Z-lyte, FRET). Conditions: DYRK1A kinase, 30 μM ATP, one hour; method calls values IC50.
Protocol: Each compound was dissolved in DMSO as a 10 mM stock and used to prepare compound source plates.
This is a non-radioactive assay using fluorescence resonance energy transfer (FRET) between coumarin and fluorescein to detect kinase activity which is represented as a ratio of coumarin emission/fluorescein emission.
The mixture was allowed to incubate with the representative compounds for one hour at room temperature. All reactions were performed in duplicate. Unphosphorylated (“0% Control”) and phosphorylated (“100% control”) forms of Ser/Thr 18 served as control reactions. Additionally, an 11-point dose-response curve of Staurosporine (1 uM top) was run to serve as a positive compound control.
After incubation, Development Reagent A was diluted in Development Buffer then added to the reaction and allowed to further incubate for one hour at room temperature.
Dose-response curves were generated and inhibitory concentration (IC50) values were calculated using non-linear regression curve fit in the Dotmatics' Studies Software (Bishops Stortford, UK).
The target of experiment [5] is recombinant GSK3β kinase (Homo sapiens (Human), UniProt P49841). The experiment can be described thus: GSK3β kinase assay (Ser/Thr 09 peptide Z-lyte, FRET). Format: biochemical. Conditions: GSK3β kinase, 46 μM ATP, one hour; method calls values IC50.
In experiment [6] the test system is IL-6. The experiment can be described thus: IL-6 inhibition in LPS-stimulated human peripheral blood mononuclear cells (HTRF). Format: cell-based. As to conditions: Homo sapiens, PBMC; huPBMCs, LPS 50 ng/mL, 22 hours, IL-6 HTRF. The essentials:
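Fresh human PBMCs at 1×10e6 cells/mL in 1% FBS-RPMI were pretreated with compound for 2 h, then stimulated with 50 ng/mL E. coli 0111:B4 LPS for a further 22 h at 37 °C. IL-6 was measured by HTRF (665/620 nm ratio). Values were normalized to DMSO and fitted 4-parameter for EC50.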
On the technique in general: In TR-FRET formats the signal depends on donor and acceptor labels being close together.

In experiment [7] the test system is Wnt-responsive promoter (Sp5-Luc reporter) in SW480 colon carcinoma cells. The experiment can be described thus: Sp5-Luc reporter gene screening assay for Wnt activity in SW480 cells. Conditions: Homo sapiens, 36 to 48 hours, luminescence. Format: cell-based, human. In short, it runs like this:
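SW480 cells stably carrying a luciferase reporter under an Sp5 promoter with eight TCF/LEF sites, plated at 4,000 cells/well in DMEM with 1% FBS and incubated 36 to 48 hours at 37° C. Luminescence normalized to DMSO-only cells; EC50 fitted by four-parameter nonlinear regression.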
For orientation: In a reporter assay the amount or activity of a reporter protein is the signal.

Usually EC50 stands for the midpoint of the concentration-response curve.

Each structure is given as a SMILES string.

recombinant GSK3β kinase, sequence (P49841 whole entry): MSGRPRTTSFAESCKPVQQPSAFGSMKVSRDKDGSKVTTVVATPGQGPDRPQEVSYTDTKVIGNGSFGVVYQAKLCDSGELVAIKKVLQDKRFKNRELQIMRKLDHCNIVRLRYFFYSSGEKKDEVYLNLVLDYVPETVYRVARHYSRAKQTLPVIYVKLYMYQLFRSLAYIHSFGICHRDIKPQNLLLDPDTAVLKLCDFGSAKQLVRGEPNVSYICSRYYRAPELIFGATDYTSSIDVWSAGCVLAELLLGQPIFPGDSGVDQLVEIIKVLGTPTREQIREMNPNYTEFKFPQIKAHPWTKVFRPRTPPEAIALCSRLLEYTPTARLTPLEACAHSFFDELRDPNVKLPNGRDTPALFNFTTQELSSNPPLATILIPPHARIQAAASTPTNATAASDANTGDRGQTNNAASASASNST

`Cc1ncc(C(=O)Nc2cc3cc(-c4cnc(C)n4C)ccc3cn2)s1` [Compound 62, N-(6-(1,2-Dimethyl-1H-imidazol-5-yl)isoquinolin-3-yl)-2-methylthiazole-5-carboxamide]: the EC50 in experiment [1] came to 644 nM; in experiment [2] it was 23 nM; in experiment [3] it was 193 nM; in experiment [4], 2 nM; in experiment [5] it was 450 nM; in experiment [6], 2760 nM. The same compound yielded an EC50 in experiment [7] of 110 nM.

`Cc1ncc(-c2ccc3cnc(NC(=O)Cn4ccnc4)cc3c2)o1` [Compound 64, 2-(1H-imidazol-1-yl)-N-(6-(2-methyloxazol-5-yl)isoquinolin-3-yl)acetamide]: the EC50 stood at 187 nM in experiment [1]; 836 nM in experiment [2]; 85 nM in experiment [3]; 4 nM in experiment [4]; 9 nM in experiment [5]; 427 nM in experiment [6]. The same compound came in with an EC50 in experiment [7] of 1150 nM.
